Experimental data reported in ChEMBL document CHEMBL4665805, “Expression of the Clifednamide Biosynthetic Pathway in Streptomyces Generates 27,28-seco-Derivatives” (J Nat Prod, 2020).
Calls of active or inactive are those of the source. The calls are words filed in the database; no cut-off is given here.

Legend:
Salmonella typhimurium = experiment: Antimicrobial activity against Salmonella enterica serovar Typhimurium UK-1 x8956 at 20 microg/disk by disc diffusion assay; format: functional, organism-based; conditions: Salmonella enterica subsp. enterica serovar Typhimurium, dose 20.0 µg/disk
Pythium aphanidermatum = experiment: Antimicrobial activity against Pythium aphanidermatum at 50 microg/disk by disc diffusion assay; format: functional, organism-based; conditions: dose 50.0 µg/disk
Xanthomonas oryzae = experiment: Antimicrobial activity against Xanthomonas oryzae pv. oryzicola RS105 at 20 microg/disk by disc diffusion assay; format: functional; conditions: dose 20.0 µg/disk
Staphylococcus aureus = experiment: Antimicrobial activity against Staphylococcus aureus ATCC 25923 at 20 microg/disk by disc diffusion assay; format: functional, organism-based; conditions: dose 20.0 µg/disk
Fusarium graminearum = experiment: Antimicrobial activity against Fusarium graminearum at 50 microg/disk by disc diffusion assay; format: functional, organism-based; conditions: dose 50.0 µg/disk
Bacillus subtilis = experiment: Antimicrobial activity against Bacillus subtilis at 20 microg/disk by disc diffusion assay; format: functional, organism-based; conditions: dose 20.0 µg/disk
Streptomyces sp. = experiment: Antimicrobial activity against Streptomyces sp. S001 at 20 microg/disk by disc diffusion assay; format: functional, organism-based; conditions: dose 20.0 µg/disk
MIA PaCa-2 = experiment: Cytotoxicity against human MIA PaCa-2 cells assessed as reduction in cell viability by MTT assay; format: functional, cell-based
A549 = experiment: Cytotoxicity against human A549 cells assessed as reduction in cell viability by MTT assay; format: functional, cell-based

Row | Compound | Activity (Salmonella typhimurium) | Activity (Pythium aphanidermatum) | Activity (Xanthomonas oryzae) | Activity (Staphylococcus aureus) | Activity (Fusarium graminearum) | Activity (Bacillus subtilis) | Activity (Streptomyces sp.) | IC50 (MIA PaCa-2) [nM] | IC50 (A549) [nM]
1 | CC(=O)[C@H]1[C@@H]2C=C[C@@H]3[C@@H](C/C=C\C(N)=O)[C@H](/C=C/C(=O)C4=C(O)[C@H](CCC(=O)O)NC4=O)C[C@@H]3[C@H]2C[C@H]1C | inactive | inactive | inactive | inactive | inactive | inactive | inactive | – | –
2 | CC(=O)[C@H]1[C@@H]2C=C[C@@H]3/C=C/C=C/C(=O)NCC[C@H](O)[C@@H]4NC(=O)C(=C4O)C(=O)/C=C/C=C/[C@@H]3[C@H]2C[C@H]1C | inactive | inactive | inactive | inactive | inactive | inactive | inactive | – | –
3 | CC(=O)[C@H]1[C@@H]2C=C[C@H](/C=C/C=C/C(N)=O)[C@H](/C=C/C=C/C(=O)C3=C(O)[C@H](CCC(=O)O)NC3=O)[C@H]2C[C@H]1C | inactive | inactive | inactive | inactive | inactive | inactive | inactive | 9600 | –
4 | COc1cccc2c1C(=O)c1c(O)c3c(c(O)c1C2=O)C[C@@](O)(C(=O)CO)C[C@@H]3O[C@H]1C[C@H](N)[C@H](O)[C@H](C)O1 [DOXORUBICIN] | – | – | – | – | – | – | – | 430 | –
5 | CC(=O)[C@H]1[C@@H]2C=C[C@@H]3[C@H]4C/C=C\C(=O)NCC[C@H](O)[C@@H]5NC(=O)C(=C5O)C(=O)/C=C/[C@@H]4C[C@@H]3[C@H]2C[C@H]1C | inactive | inactive | inactive | inactive | inactive | inactive | inactive | 1000 | 530
6 | CC(=O)[C@H]1[C@@H]2C=C[C@@H]3[C@H]4C/C=C\C(=O)NCCC[C@@H]5NC(=O)C(=C5O)C(=O)/C=C/[C@@H]4C[C@@H]3[C@H]2C[C@H]1C | inactive | inactive | inactive | inactive | inactive | inactive | inactive | 2400 | 1400
7 | CC(=O)[C@H]1[C@@H]2C=C[C@@H]3/C=C/C=C/C(=O)NCCC[C@@H]4NC(=O)C(=C4O)C(=O)/C=C/C=C/[C@@H]3[C@H]2C[C@H]1C | inactive | inactive | inactive | inactive | inactive | inactive | inactive | – | –
8 | CC(O)[C@H]1[C@@H]2C=C[C@@H]3/C=C/C=C/C(=O)NCC[C@H](O)[C@@H]4NC(=O)C(=C4O)C(=O)/C=C/C=C/[C@@H]3[C@H]2C[C@H]1C (some centres undefined) | inactive | inactive | inactive | inactive | inactive | inactive | inactive | – | –
9 | C[C@@H]1C[C@H]2[C@@H](C=C[C@@H]3[C@H]4C/C=C\C(=O)NCC[C@H](O)[C@@H]5NC(=O)C(=C5O)C(=O)/C=C/[C@@H]4C[C@@H]32)[C@@H]1C(=O)CO | inactive | inactive | inactive | inactive | inactive | inactive | inactive | – | –
10 | CC[C@H]1[C@@H]2C=C[C@H](/C=C/C=C/C(N)=O)[C@H](/C=C/C=C/C(=O)C3=C(O)[C@H](CCC(=O)O)NC3=O)[C@H]2C[C@H]1C | inactive | inactive | inactive | inactive | inactive | inactive | inactive | – | –
